For one data set, the system named is macrophages. Further details: method as in PMID 24257684. The conditions noted are these: macrophages ref 37; cited from earlier work.
The next data set relates to human liver S9 fractions. Nature of the data set: In vitro glucuronidation by human hepatic S9 fractions. It counts as in vitro ADME. The conditions noted are these: for Vmax: human S9 0.5 mg/mL. Here is the method:
(§1) To study the production of glucuronide metabolites in vitro, human and rat S9 hepatic fractions were used. To ensure that the formation rates of metabolites were linear over the incubation time and at the concentration of protein, a series of preliminary experiments was performed to optimize the reactions.
(§2) Glucuronidation was studied by incubation of human or rat liver S9 fractions (0.5 mg/mL) with ORV or GN at different concentrations (0–3000 μM) in Tris–HCl buffer (50 mM, pH 7.4) in the presence of UDPGA (1 mM), alamethicin (25 μg/mL), and MgCl2 (5 mM). All samples were prepared in Eppendorf tubes in a final volume of 100 μL. After 15 min at 37 °C, 100 μL of methanol (100%) was incorporated to stop the reaction and precipitate the proteins. Finally, samples were centrifuged for 30 min at 14000g and 4 °C, and the supernatants were analyzed by UPLC–DAD–MS. Analysis were carried out using 1290 Infinity UPLC (Agilent Technologies, Courtaboeuf, France). The UPLC system was coupled to an Esquire 3000 Plus ion trap mass spectrometer using an ESI source (Bruker-Daltonics, Billerica, MA, U.S.A.). A total of 2 μL was injected into an Agilent SB-C18 column (1.8 μm, 2.1 × 100 mm). Samples were eluted with solvent A (H2O/0.1% formic acid) and solvent B (acetonitrile/0.1% formic acid) with the following gradient program: 10% B (from 0 to 1.7 min), 10–20% B (from 1.7 to 3.4 min), 20–30% B (from 3.4 to 5.1 min), 30% B (from 5.1 to 7.8 min), 30–35% B (from 7.8 to 9.5 min), 35–60% B (from 9.5 to 11.9 min), 60–100% B (from 11.9 to 15.3 min), 100% B (from 15.3 to 17 min), and 100–10% B (from 17 to 17.3 min). The flow rate was set at 0.4 mL/min, and the UV detector was set at wavelengths of 280 and 320 nm. Total ion chromatograms were obtained using negative mode with a range of m/z 130–1400. The parameters were as follows: capillary voltage, +4 kV; nebulizer pressure, 40 psi; dry gas, 10 L/min; and dry temperature, 365 °C. Data analysis was performed with Bruker Data Analysis 3.2 (Bruker-Daltonics, Billerica, MA, U.S.A.). Metabolite concentrations were quantified with the corresponding standard curve of ORV and GN glucuronides previously obtained by hemisynthesis.
(§3) The kinetic parameters, Km, Vmax, and Ki, were calculated using the GraphPad Prism software (version 6.01) (substrate inhibition as the kinetic model). The data obtained from MTT, NO, ROS, IL-1β, and TNF-α production were subjected to one-way analysis of variance (ANOVA). A comparison between LPS and the different tested concentrations of ORV, GN, and their glucuronide metabolites was performed using Dunnet’s test, and p < 0.05 was considered significant (GraphPad Prism software, version 6.01).
(§4) An important objective of this work was to study the in vitro metabolization of t-ORV and t-GN in rat and human species using S9 hepatic fractions. To this end, both stilbene monomers were incubated (37 °C, 15 min) at different concentrations (0–3000 μM) with human and rat S9 fractions (0.5 mg/mL) in the presence of UDPGA as a co-substrate of phase II enzymes. Then, samples were injected into a HPLC–DAD–MS system to identify and quantify the in vitro generated metabolites.

For the next data set, the system named is rat liver S9 fractions. Nature of the data set: In vitro glucuronidation by rat hepatic S9 fractions. It counts as in vitro ADME. Conditions: for Vmax: rat S9 0.5 mg/mL. How it is done:
as §1, §2, §3, §4

In data set [1] the test system is NO production in LPS-stimulated RAW 264.7 cells. As to the kind of experiment: NO measurement (Griess) in LPS-stimulated macrophages. It counts as cell-based, murine. Conditions: for reduction of NO production: 50 μM, versus LPS alone. How it is done:
(§5) RAW 264.7 cells were cultured in DMEM containing 10% FBS and maintained in a humidified incubator set at 37 °C with 5% CO2. For all following assays, cells were subcultured at a density of 40 000 cells per well in 96 well culture plates with 200 μL of the above-described culture medium. After 24 h, cells were incubated with ORV, GN, and their glucuronide metabolites (5–200 μM) in RPMI medium supplemented with glutamine (4 mM) in the presence or absence of LPS (0.1 μg/mL) (200 μL final volume per well). For MTT, NO, ROS, IL-1β, and TNF-α (n = 4), each experiment was performed in triplicate separately.
After 24 h of treatment of RAW 264.7 cells with ORV, GN, and their glucuronide metabolites, 70 μL of supernatant was mixed with 70 μL of Griess solution. After 15 min in darkness, the absorbance was measured at 550 nm using a microplate reader (FLUOstar Optima, BMG Labtech). A calibration curve of NO2 (0–100 μM) was used for quantification. Data were expressed as NO production (μM) compared to cells treated only with LPS (positive control).
(In general: The Griess reaction detects nitrite, a stable product of nitric oxide.)

The conditions of data set [2]: in vivo, 400 umol/kg; cited from earlier work.
Data set [3] relates to RAW 264.7 cells. As to the kind of experiment: MTT cell viability. It counts as cell-based, murine. The conditions noted are these: 24 h, 5–200 μM tested. How it is done:
as §5
The MTT colorimetric assay was performed to assess the cell viability of cells after being treated with ORV, GN, and their glucuronide metabolites. After 24 h of treatment, RAW 264.7 cells were incubated with 0.5 mg/mL MTT during 3 h at 37 °C. The formazan crystals formed were dissolved with 100 μL of dimethyl sulfoxide (DMSO), and the plate was then incubated in the darkness for 30 min. Finally, the absorbance was measured at 595 nm using a microplate reader (FLUOstar Optima, BMG Labtech).

Data set [4] has as its system ROS production in LPS-stimulated RAW 264.7 cells. Nature of the data set: Intracellular ROS measurement (DCFH2-DA) in LPS-stimulated macrophages. It counts as cell-based, murine. How it is done: as §5
Generation of intracellular ROS in cells was analyzed using the fluorometric probe DCFH2-DA. After 24 h of treatment with GN, ORV, and their glucuronide metabolites, cells were washed with phosphate-buffered saline (PBS) and then 150 μL of DCFH2-DA (10 μM) was added. After 30 min at 37 °C, the fluorescence intensity was quantified using a microplate reader (FLUOstar Optima, BMG Labtech) with a wavelength of excitation and emission of 485 and 520 nm, respectively. All experiments were performed in darkness. Results were expressed as ROS production (fluorescence intensity expressed as arbitrary units) compared to cells treated only with LPS (positive control).

For data set [5] the following is noted: cited from earlier work.
The subject of a further data set is macrophage cell line. The conditions noted are these: 100 μM, 18 h incubation ref 6; cited from earlier work.
The subject of a further data set is HMC3 cells. Set-up: method as in PMID 32842681. The conditions noted are these: HMC3 cells ref 8; cited from earlier work.
The test system of data set [6] is RAW 264.7 cells. Conditions: cited from earlier work.
For data set [7], the system named is TNF-α production in LPS-stimulated RAW 264.7 cells. Nature of the data set: TNF-α production (ELISA) in LPS-stimulated macrophages. It counts as cell-based, murine. Conditions: 24 h. How it is done:
as §5
At 24 h after seeding, RAW 264.7 cells were exposed to LPS (0.1 μg/mL) in the absence or presence of ORV, GN (10 and 50 μM), and their metabolites (50 and 200 μM). After 24 h of exposure, IL-1β and TNF-α concentrations were measured in culture media supernatants by ELISA sandwich assay following the instructions of the manufacturer.
For orientation: An ELISA detects its analyte on a solid surface through an enzyme-linked reagent.

Setting [8] is: incubation of parent ORV or GN with human S9, UPLC–DAD–MS.
The mark [9] stands for this setting: formation of the glucuronide from ORV.
[10] abbreviates: between 25 and 50 μM (summary statement).
Setting [11] is: formation of the glucuronide from GN.

The text below walks through data of paper PMC9585577, “Oxyresveratrol and Gnetol Glucuronide Metabolites: Chemical Production, Structural Identification, Metabolism by Human and Rat Liver Fractions, and In Vitro Anti-inflammatory Properties” (Journal of Agricultural and Food Chemistry, 2022).

Where two headings read alike, the source gives them in different places.

`O=C(O)[C@H]1O[C@@H](Oc2cc(O)cc(/C=C/c3ccc(O)cc3)c2)[C@H](O)[C@@H](O)[C@@H]1O` [resveratrol-3-O-glucuronide]: the cytotoxic effect result with macrophages is “neither resveratrol-3-O-glucuronide nor resveratrol-4′-O-glucuronide had any cytotoxic effect”.
For `O=C(O)[C@H]1O[C@@H](Oc2cc(O)cc(/C=C/c3c(O)cccc3O)c2)[C@H](O)[C@@H](O)[C@@H]1O` [t-GN-3G, trans-gnetol-3-O-glucuronide], the “metabolite formed/detected in samples” value with human liver S9 fractions (setting [8]) is listed as “very low quantities”.
For `O=C(O)[C@H]1O[C@@H](Oc2cc(O)ccc2/C=C/c2cc(O)cc(O)c2)[C@H](O)[C@@H](O)[C@@H]1O` [t-ORV-2′G, trans-oxyresveratrol-2′-O-glucuronide], the Vmax with rat liver S9 fractions (setting [9]) is 2.67 ± 0.32 nmol min^–1 mg^–1 of protein; in the data set with human liver S9 fractions (setting [9]) it was 12.93 ± 1.47 nmol min^–1 mg^–1 of protein. In addition, in [1] (24 h, LPS 0.1 μg/mL), the “reduction of NO production” value worked out at 29%.
Consider `Oc1cc(O)cc(/C=C/c2ccc(O)cc2O)c1` [t-ORV, trans-2′,3,4′,5-tetrahydroxystilbene], for which the total bioavailability in [2] is reported as 9.1-15.2%. Moreover, in the data set with RAW 264.7 cells [3], the “concentration from which toxic (MTT)” value is not below 100 µM. Further, in data set [4] (50 μM, 24 h, LPS 0.1 μg/mL), the “reduction of ROS” value is “more than 70%”. Besides, in data set [4] (setting [10]), the “decrease of ROS production” value is “more than 50%”. In addition, the “AUC0–t” value in data set [5] (rat, in vivo, po) is listed as 5133 μg h L^–1. The concentration in plasma in [5] (rats, oral administration of ORV 100 mg/kg ref 19) is approximately 10 µM. Further, the “ability to metabolize ORV into glucuronides, rats versus humans (sum of Vmax/Km)” value in the data set with rat liver S9 fractions (rat, human, pH 7.4) is given as more than 2 fold. Further, the cytotoxic effect entry in the data set on macrophage cell line is recorded as “did not observe any cytotoxic effect”. Besides, in data set [1] (24 h, LPS 0.1 μg/mL), the “reduction of NO production” value is 27.1% and the “concentration from which NO production significantly reduced” value was not below 10 µM. In [1] (setting [10]), the “decrease of NO production” value was “more than 50%”. In addition, in the data set on HMC3 cells, the “concentration from which toxic” value is not below 80 µM. In addition, the “IC30 for cell cytotoxicity” value with RAW 264.7 cells [6] is on record as “higher than 50 μM”. In data set [7] (50 μM), the “reduction of TNF-α” value is given as 30%.
On to `O=C(O)[C@H]1O[C@@H](Oc2ccc(/C=C/c3cc(O)cc(O)c3)cc2)[C@H](O)[C@@H](O)[C@@H]1O` [resveratrol-4′-O-glucuronide], for which, in the data set on macrophages, the cytotoxic effect result is “neither resveratrol-3-O-glucuronide nor resveratrol-4′-O-glucuronide had any cytotoxic effect”.
For the molecule `O=C(O)[C@H]1O[C@@H](Oc2cc(O)cc(/C=C\c3ccc(O)cc3O)c2)[C@H](O)[C@@H](O)[C@@H]1O` (relative stereo) [c-ORV-3G, cis-oxyresveratrol-3-O-glucuronide], the Vmax/Km is recorded as 0.073 ± 0.044 μL min^–1 mg^–1 of protein in the data set on rat liver S9 fractions and 0.159 ± 0.066 μL min^–1 mg^–1 of protein with human liver S9 fractions. Moreover, the values for the Vmax in the data set with rat liver S9 fractions (setting [9]) and in the data set on human liver S9 fractions (setting [9]) were 31.34 ± 5.6 nmol min^–1 mg^–1 of protein and 13.01 ± 1.04 nmol min^–1 mg^–1 of protein, respectively.
Turning to `O=C(O)C1OC(Oc2ccc(C=Cc3cc(O)cc(O)c3)c(O)c2)C(O)C(O)C1O` (stereo not shown) [ORV-4′G], the “metabolite formed/detected in samples” value with rat liver S9 fractions (incubation of parent ORV or GN with rat S9, UPLC–DAD–MS) is “neither the trans nor the cis form of ORV-4′G was detected”; with human liver S9 fractions (setting [8]) it was “neither the trans nor the cis form of ORV-4′G was detected”.
For `O=C(O)[C@H]1O[C@@H](Oc2ccc(/C=C/c3cc(O)cc(O)c3)c(O)c2)[C@H](O)[C@@H](O)[C@@H]1O` [t-ORV-4′G, trans-oxyresveratrol-4′-O-glucuronide], the “reduction of NO production” value in data set [1] (24 h, LPS 0.1 μg/mL) is 27.2%.
Take `O=C(O)[C@H]1O[C@@H](Oc2cc(O)ccc2/C=C\c2cc(O)cc(O)c2)[C@H](O)[C@@H](O)[C@@H]1O` (relative stereo) [c-ORV-2′G, cis-oxyresveratrol-2′-O-glucuronide]: the “metabolite formed/detected in samples” value in the data set on rat liver S9 fractions and with human liver S9 fractions was “very low” each time.
As for `O=C(O)[C@H]1O[C@@H](Oc2cccc(O)c2/C=C/c2cc(O)cc(O)c2)[C@H](O)[C@@H](O)[C@@H]1O` [t-GN-2′G, trans-gnetol-2′-O-glucuronide], the Vmax is on record as 6.88 ± 0.86 nmol min^–1 mg^–1 of protein in the data set with rat liver S9 fractions (setting [11]) and 2.48 ± 0.31 nmol min^–1 mg^–1 of protein with human liver S9 fractions (setting [11]).
As to `O=C(O)[C@H]1O[C@@H](Oc2cc(O)cc(/C=C/c3ccc(O)cc3O)c2)[C@H](O)[C@@H](O)[C@@H]1O` [t-ORV-3G, trans-oxyresveratrol-3-O-glucuronide], the “reduction of ROS production, at the most” value in data set [4] (ORV metabolites, 50–200 μM tested, concentration not given, 24 h, LPS) was “more than 80%”. Besides, the Vmax in the data set with rat liver S9 fractions (setting [11]) is given as 36 ± 3.57 nmol min^–1 mg^–1 of protein; in the data set with rat liver S9 fractions (setting [9]), 319.1 ± 69.77 nmol min^–1 mg^–1 of protein; with human liver S9 fractions (setting [9]), 11.41 ± 2.32 nmol min^–1 mg^–1 of protein. The “reduction of NO production” value in data set [1] (24 h, LPS 0.1 μg/mL) came out at 31%. The “reduction of TNF-α” value in data set [7] (200 μM) came out at 70%.
